Source: ChEMBL document CHEMBL3885881, “DrugMatrix”

Species: Rattus norvegicus
Assay: DrugMatrix - Regimen: Daily Repeat
Assay type: toxicity, organism-based, Sprague-Dawley
Design: regimen Daily Repeat, gender Male, age 6-8 weeks
Conditions: in vivo, po, route oral GAVAGE, vehicle 100 % WATER; for ABSOLUTE BASOPHIL / ABSOLUTE EOSINOPHIL / ABSOLUTE LYMPHOCYTE / ABSOLUTE MONOCYTE / ABSOLUTE SEGMENTED NEUTROPHIL / BASOPHIL / EOSINOPHIL / ERYTHROCYTE COUNT / HEMATOCRIT / HEMOGLOBIN / LEUKOCYTE COUNT / LYMPHOCYTE / MEAN CORPUSCULAR HEMOGLOBIN / MEAN CORPUSCULAR HEMOGLOBIN CONCENTRATION / MEAN CORPUSCULAR VOLUME / MONOCYTE / NEUTROPHIL / NUCLEATED RED BLOOD CELLS / PLATELET COUNT: tissue Blood; for ALANINE AMINOTRANSFERASE / ALBUMIN / ALKALINE PHOSPHATASE / ASPARTATE AMINOTRANSFERASE / BLOOD UREA NITROGEN / CARBON DIOXIDE / CHLORIDE / CHOLESTEROL / CREATINE PHOSPHOKINASE / CREATININE / GLUCOSE / LACTATE DEHYDROGENASE / LIPASE / PHOSPHORUS / POTASSIUM / SODIUM / TOTAL BILIRUBIN / TOTAL PROTEIN / URIC ACID: tissue Plasma
[1] = 0 mg/kg, 72 h, dose level Control, time 3 day
[2] = 0 mg/kg, 120 h, dose level Control, time 5 day
[3] = 3525 mg/kg, 72 h, dose level High, time 3 day
[4] = 3525 mg/kg, 120 h, dose level High, time 5 day

OCCO [ETHYLENE GLYCOL]
ABSOLUTE BASOPHIL [1]: 0 CELLS/uL
ABSOLUTE EOSINOPHIL [1]: 0 CELLS/uL
ABSOLUTE LYMPHOCYTE [1]: 7802.17 CELLS/uL
ABSOLUTE MONOCYTE [1]: 13.5 CELLS/uL
ABSOLUTE SEGMENTED NEUTROPHIL [1]: 617.67 CELLS/uL
BASOPHIL [1]: 0%
EOSINOPHIL [1]: 0%
ERYTHROCYTE COUNT [1]: 5.35 x10E6/uL
HEMATOCRIT [1]: 33.02%
HEMOGLOBIN [1]: 12.88 G/DL
LEUKOCYTE COUNT [1]: 8.43 x10E3/uL
LYMPHOCYTE [1]: 92.67%
MEAN CORPUSCULAR HEMOGLOBIN [1]: 24.12 pg
MEAN CORPUSCULAR HEMOGLOBIN CONCENTRATION [1]: 39.03 G/DL
MEAN CORPUSCULAR VOLUME [1]: 61.8 fL
MONOCYTE [1]: 0.17%
NEUTROPHIL [1]: 7.17%
NUCLEATED RED BLOOD CELLS [1]: 0 /100WBC
PLATELET COUNT [1]: 1124.83 x10E3/uL
ALANINE AMINOTRANSFERASE [1]: 54.17 u/L
ALBUMIN [1]: 4.07 G/DL
ALKALINE PHOSPHATASE [1]: 383.83 u/L
ASPARTATE AMINOTRANSFERASE [1]: 82.17 u/L
BLOOD UREA NITROGEN [1]: 13.67 mg/dL
CARBON DIOXIDE [1]: 31 mmol/L
CHLORIDE [1]: 100.83 MEQ/L
CHOLESTEROL [1]: 65.17 mg/dL
CREATINE PHOSPHOKINASE [1]: 228.33 u/L
CREATININE [1]: 0.12 mg/dL
GLUCOSE [1]: 148 mg/dL
LACTATE DEHYDROGENASE [1]: 97.83 u/L
LIPASE [1]: 9.17 u/L
PHOSPHORUS [1]: 9.75 mg/dL
POTASSIUM [1]: 5.85 MEQ/L
SODIUM [1]: 147.02 MEQ/L
TOTAL BILIRUBIN [1]: 0.18 mg/dL
TOTAL PROTEIN [1]: 6.1 G/DL
URIC ACID [1]: 0.5 mg/dL
ABSOLUTE BASOPHIL [2]: 0 CELLS/uL
ABSOLUTE EOSINOPHIL [2]: 0 CELLS/uL
ABSOLUTE LYMPHOCYTE [2]: 10538 CELLS/uL
ABSOLUTE MONOCYTE [2]: 15.83 CELLS/uL
ABSOLUTE SEGMENTED NEUTROPHIL [2]: 762.83 CELLS/uL
BASOPHIL [2]: 0%
EOSINOPHIL [2]: 0%
ERYTHROCYTE COUNT [2]: 5.49 x10E6/uL
HEMATOCRIT [2]: 34.63%
HEMOGLOBIN [2]: 13.72 G/DL
LEUKOCYTE COUNT [2]: 11.32 x10E3/uL
LYMPHOCYTE [2]: 92.67%
MEAN CORPUSCULAR HEMOGLOBIN [2]: 24.97 pg
MEAN CORPUSCULAR HEMOGLOBIN CONCENTRATION [2]: 39.57 G/DL
MEAN CORPUSCULAR VOLUME [2]: 63.05 fL
MONOCYTE [2]: 0.17%
NEUTROPHIL [2]: 7.17%
NUCLEATED RED BLOOD CELLS [2]: 0.17 /100WBC
PLATELET COUNT [2]: 802 x10E3/uL
ALANINE AMINOTRANSFERASE [2]: 50.5 u/L
ALBUMIN [2]: 4.07 G/DL
ALKALINE PHOSPHATASE [2]: 336.83 u/L
ASPARTATE AMINOTRANSFERASE [2]: 81 u/L
BLOOD UREA NITROGEN [2]: 14.17 mg/dL
CARBON DIOXIDE [2]: 32 mmol/L
CHLORIDE [2]: 98.33 MEQ/L
CHOLESTEROL [2]: 69.17 mg/dL
CREATINE PHOSPHOKINASE [2]: 253.33 u/L
CREATININE [2]: 0.13 mg/dL
GLUCOSE [2]: 153.67 mg/dL
LACTATE DEHYDROGENASE [2]: 157 u/L
LIPASE [2]: 9 u/L
PHOSPHORUS [2]: 10.78 mg/dL
POTASSIUM [2]: 6.11 MEQ/L
SODIUM [2]: 144.57 MEQ/L
TOTAL BILIRUBIN [2]: 0.15 mg/dL
TOTAL PROTEIN [2]: 6.05 G/DL
URIC ACID [2]: 0.73 mg/dL
ABSOLUTE BASOPHIL [3]: 0 CELLS/uL
ABSOLUTE EOSINOPHIL [3]: 0 CELLS/uL
ABSOLUTE LYMPHOCYTE [3]: 6464 CELLS/uL
ABSOLUTE MONOCYTE [3]: 70.67 CELLS/uL
ABSOLUTE SEGMENTED NEUTROPHIL [3]: 598.67 CELLS/uL
BASOPHIL [3]: 0%
EOSINOPHIL [3]: 0%
ERYTHROCYTE COUNT [3]: 5.57 x10E6/uL
HEMATOCRIT [3]: 33.43%
HEMOGLOBIN [3]: 13.07 G/DL
LEUKOCYTE COUNT [3]: 7.13 x10E3/uL
LYMPHOCYTE [3]: 90.67%
MEAN CORPUSCULAR HEMOGLOBIN [3]: 23.5 pg
MEAN CORPUSCULAR HEMOGLOBIN CONCENTRATION [3]: 39.1 G/DL
MEAN CORPUSCULAR VOLUME [3]: 60.17 fL
MONOCYTE [3]: 1%
NEUTROPHIL [3]: 8.33%
NUCLEATED RED BLOOD CELLS [3]: 0 /100WBC
PLATELET COUNT [3]: 918.33 x10E3/uL
ALANINE AMINOTRANSFERASE [3]: 68 u/L
ALBUMIN [3]: 3.93 G/DL
ALKALINE PHOSPHATASE [3]: 332 u/L
ASPARTATE AMINOTRANSFERASE [3]: 88.33 u/L
BLOOD UREA NITROGEN [3]: 12.33 mg/dL
CARBON DIOXIDE [3]: 36 mmol/L
CHLORIDE [3]: 97.67 MEQ/L
CHOLESTEROL [3]: 61 mg/dL
CREATINE PHOSPHOKINASE [3]: 279 u/L
CREATININE [3]: 0.1 mg/dL
GLUCOSE [3]: 140 mg/dL
LACTATE DEHYDROGENASE [3]: 110.33 u/L
LIPASE [3]: 9 u/L
PHOSPHORUS [3]: 9 mg/dL
POTASSIUM [3]: 5.82 MEQ/L
SODIUM [3]: 143.77 MEQ/L
TOTAL BILIRUBIN [3]: 0.17 mg/dL
TOTAL PROTEIN [3]: 5.7 G/DL
URIC ACID [3]: 0.77 mg/dL
ABSOLUTE BASOPHIL [4]: 0 CELLS/uL
ABSOLUTE EOSINOPHIL [4]: 0 CELLS/uL
ABSOLUTE LYMPHOCYTE [4]: 7667.33 CELLS/uL
ABSOLUTE MONOCYTE [4]: 0 CELLS/uL
ABSOLUTE SEGMENTED NEUTROPHIL [4]: 399.33 CELLS/uL
BASOPHIL [4]: 0%
EOSINOPHIL [4]: 0%
ERYTHROCYTE COUNT [4]: 5.77 x10E6/uL
HEMATOCRIT [4]: 35.47%
HEMOGLOBIN [4]: 14.17 G/DL
LEUKOCYTE COUNT [4]: 8.07 x10E3/uL
LYMPHOCYTE [4]: 95.33%
MEAN CORPUSCULAR HEMOGLOBIN [4]: 24.53 pg
MEAN CORPUSCULAR HEMOGLOBIN CONCENTRATION [4]: 39.97 G/DL
MEAN CORPUSCULAR VOLUME [4]: 61.43 fL
MONOCYTE [4]: 0%
NEUTROPHIL [4]: 4.67%
NUCLEATED RED BLOOD CELLS [4]: 0 /100WBC
PLATELET COUNT [4]: 1091.67 x10E3/uL
ALANINE AMINOTRANSFERASE [4]: 54 u/L
ALBUMIN [4]: 4.1 G/DL
ALKALINE PHOSPHATASE [4]: 328.33 u/L
ASPARTATE AMINOTRANSFERASE [4]: 80 u/L
BLOOD UREA NITROGEN [4]: 14 mg/dL
CARBON DIOXIDE [4]: 35.67 mmol/L
CHLORIDE [4]: 96.33 MEQ/L
CHOLESTEROL [4]: 66 mg/dL
CREATINE PHOSPHOKINASE [4]: 238.33 u/L
CREATININE [4]: 0.14 mg/dL
GLUCOSE [4]: 145 mg/dL
LACTATE DEHYDROGENASE [4]: 115.67 u/L
LIPASE [4]: 9.33 u/L
PHOSPHORUS [4]: 9.87 mg/dL
POTASSIUM [4]: 6.09 MEQ/L
SODIUM [4]: 144 MEQ/L
TOTAL BILIRUBIN [4]: 0.17 mg/dL
TOTAL PROTEIN [4]: 6.17 G/DL
URIC ACID [4]: 0.73 mg/dL
